Experimental findings from patent US9504676B2, “Molecules inhibiting a metabolic pathway involving the Syk protein tyrosine kinase and method for identifying said molecules” (CENTRE NATIONAL DE LA RECHERCHE SCIENTIFIQUE, priority 2008, dated 2016) are described below.

This data set has as its system BMMC cells. As to the kind of experiment: C-13 toxicity test on BMMC cells (Annexin-V and Propidium Iodide). Conditions: Staurosporine, 3 hours. Format: cell-based. The procedure: FIG. 10. Toxicity test of C-13 on BMMC cells. The BMMC cells were incubated at 37° C. in the presence of 2.5 μM or 5 μM of C-13, 0.25% DMF or Staurosporine. The percentages of live BMMC cells after 3 hours and after 5 days were detected by means of double Annexin-V and Propidium Iodide labelling. The viability of BMMC cells incubated in the presence of 2.5 μM or 5 μM of C-13 or 0.25% DMF was not affected to noteworthy degree after 3 hours (78%, 74% and 79% respectively) or five days (62, 56 and 57%, respectively). On the other hand, the viability of BMMC cells treated under the same conditions with Staurosporine was reduced to a level of 16% after only 3 hours.
• 1) Chemical products and antibodies. A chemical bank of 3000 molecules (a varied subset) was acquired from ChemBridge, Inc. (San Diego, Calif.). Stocks of solutions of small molecules were prepared at a rate of 10 mM in DMSO (dimethylsulphoxide), except for C-13 (methyl 2-{5-[(3-benzyl-4-oxo-2-thioxo-1,3-thiazolidin-5-ylidene)methyl]-2-furyl}benzoate, ChemBridge ID No. 6197026) prepared in DMF (dimethylformamide). Unless specified otherwise, all the reagents were supplied by Sigma. Dinitrophenyl (DNP) hapten was acquired from Calbiochem. Sepharose GammaBind G and all the secondary antibodies were supplied by GE Health Amersham Biosciences. The anti-Syk, anti-Lyn, anti-Btk, anti-PLC-γ1, anti-PLC-γ2, anti-LAT, anti-SLP-76, anti-p38, anti-JNK, anti-Vav, anti-Akt1 and 9E10 antibodies conjugated with HRP were acquired from Santa Cruz Biotechnology. The anti-phospho-p44/42 MAP Kinase, anti-p44/42 MAP Kinase, anti-phospho-p38, anti-phospho-JNK, anti-phospho-Akt1 antibodies were acquired from Cell Signaling. The anti-phospho-LAT and anti-phospho-PLC-γ1 antibodies were supplied by Biosource and the anti-phospho-SLP-76 antibodies by BD Pharmingen. The 4G10 anti-phosphotyrosine monoclonal antibody was acquired from Upstate Biotechnology. • 2) ADA method: ELISA type high-speed molecule screening test, based on antibody displacement (WO 2005106481). The recombinant fusion protein GST:Syk 6-242^8 comprising the residues 6 to 242 of murine Syk tyrosine kinase protein illustrated in FIG. 8B (SEQ ID No. 4) was immobilised on an ELISA plate at a final concentration of 10 μg ml^−1. For the screening of the chemical molecule bank, the small molecules, diluted in PBS at a final concentration of 10 μM were added to the wells for one hour at ambient temperature, before adding the fragment scFv G4G11 at a final concentration of 100 nM for an additional hour. The binding of G4G11 with Syk was assessed by adding the 9E10 monoclonal antibody conjugated with HRP detecting the amino acid sequence EQKLISEEDLN of human c-myc protein located at the C-terminal end of the scFv fragment. To generate Syk mutants, targeted mutagenesis was used on GST:Syk 6-242 protein and the binding of G4G11 with the mutants was assessed in the presence of 5 μM of C-13. • 3) Cells, culture conditions and functional tests. Anti-DNP 2682-I mouse monoclonal antibody was used as the culture supernatant of hybridomas containing 1 μg/ml of IgE. Femoral bone marrow cells were sampled and cultured in Opti-MEM medium (Gibco) supplemented with 10% foetal calf serum and 4% X63 transfectant supernatant secreting murine IL-3. RBL-2H3 (ATCC) leukaemic rat basophil cells were maintained in a single-layer culture in RPMI 1640 medium supplemented with 10% foetal calf serum (Gibco). […]

Consider `CN[C@@H]1C[C@H]2O[C@@](C)([C@@H]1OC)n1c3ccccc3c3c4c(c5c6ccccc6n2c5c31)C(=O)NC4` [Staurosporine, reference compound], for which the “percentage of live BMMC cells” value is reported as 16%.
